Experimental findings from US12624039B2, “BTK inhibitors” (DIZAL (JIANGSU) PHARMACEUTICAL CO., LTD., priority 2020, dated 2026) are described below.

For orientation: logD means lipophilicity at a set pH, counting ionised and neutral species. Read a low logD as lower lipophilicity. Usually IC50 stands for the concentration at which inhibition is half-maximal. A word on the solubility: it is the dissolved amount per volume that the medium holds. Lower therefore signals a poorly soluble substance.

Series [1] can be described thus: Log D determination (octanol/phosphate buffer). Type of series: physicochemical. To be noted: 25° C. As to the method:
10 μL of working solution of each cassette is placed in order into respective 96-well rack position (Log D plate). Add 500 μL of saturated octanol into each vial of the above cap-less Log D plate followed by the addition of 500 μL of saturated phosphate buffer. Seal with a moulded PTFE/SIL 96-Well Plate Cover.
The samples are centrifuged at 4,000 rpm at 25° C. for 30 minutes to separate the phases. Pipette and syringe are used to pipette about 100 μL from the octanol and buffer phases to a new 96-well plate, respectively.
5 μL of octanol sample is transferred to a new 96-well plate, followed by addition of 495 μL of a mixture of H2O and acetonitrile containing internal standard (1:1) as 100 fold octanol samples. Vortex for 5 minutes at 1,000 rpm.
50 μL of 100 fold samples are transferred to new 96-well plate, followed by addition of 450 μL of a mixture of H2O and acetonitrile containing internal standard (1:1) as 1,000 fold octanol samples. Vortex for 5 minutes at 1,000 rpm.
The 1,000 folds octanol samples are serially diluted into 10,000, 100,000 and 1,000,000 folds with a mixture of H2O and acetonitrile containing internal standard (1:1).
50 μL of buffer samples are transferred to new 96-well plate, followed by addition of 450 μL of a mixture of H2O and acetonitrile containing internal standard (1:1) as 10 folds buffer samples. Vortex for 5 minutes at 1,000 rpm.
The 10 folds buffer samples are serially diluted into 100, 1,000 and 10,000 folds with a mixture of H2O and acetonitrile containing internal standard (1:1). The samples are evaluated by LC/MS/MS analysis. All compounds are tested in singlicate.
All calculations are carried out using Microsoft Excel. The concentrations of test compound in octanol/buffer solution are evaluated by LC/MS/MS. Calculate the Log D value of the test compound as follows:
[formula] DF means the dilution factor. Procedure for Protein Binding Measurements in Human Plasma by Using Equilibrium Dialysis

In the next series the target is T1, Recombinant BTK(C481S) (Homo sapiens, UniProt Q06187, C481S).
T1 construct: purchased SignalChem
Briefly: BTK C481S HTRF kinase assay. Type of series: biochemical. To be noted: 30 min pre-incubation, 120 min reaction. As for the experimental part: [The procedure below names another variant; the source lists this variant under the same test.] (§1) Recombinant BTK wild type (BTK WT) was purchased from Thermo fisher.
(§2) In brief, recombinant kinases were pre-incubated in the presence or absence of compound at room temperature for 30 minutes. The reaction was initiated by the addition of the ATP and substrate peptide which could be phosphorylated by kinases in the reaction. After 120 minutes incubation, the reaction was stopped by the addition of the detection reagent mix containing EDTA.
Background: Time-resolved FRET reads energy transfer from a long-lived donor to a nearby acceptor.

Series [2] has as its target T2, Recombinant BTK wild type (BTK WT) (Homo sapiens, UniProt Q06187).
T2 construct: purchased Thermo fisher
The series is described as follows: BTK WT HTRF kinase assay. Particulars: 30 min pre-incubation, 120 min reaction. It is filed as biochemical. As for the experimental part: as §1, §2

Series [3] deals with T3, p-BTK (Phospho-Btk Tyr223) in TMD-8 cells (Homo sapiens, UniProt Q06187).
T3 construct: endogenous in cells; host or cells: TMD-8
Briefly: TMD8 cell line p-BTK Elisa assay. Type of series: cell-based. To be noted: for Maximal Inhibition Level: p-BTK ELISA; for IC50: pervanadate 100 μM, Tyr223 ELISA. As for the experimental part: The test compounds were added to the cells and cells were incubated for 0.5 hour at 37° C., 5% CO2. Then pervanadate solution was added to the cells to make a final concentration of 100 μM, and cells were incubated for a further 1 hour at 37° C., 5% CO2. […] The plate was read on a Multiscan Spectrum reader set to 450 nm wavelengths.

A further series in a line: DMSO solubility. It is filed as physicochemical.
Series [4] is described as follows: In vitro human hepatocytes clearance assay. Type of series: in vitro ADME. As to the method: In Vitro Rat/Human Hepatocytes Clearance Assay
Rat hepatocytes in male gender and human hepatocytes in mixed gender were obtained from commercial vendors (e.g., BioreclamationIVT) and stored at −150° C. prior to use. 10 mM stock solutions of tested compounds were prepared in DMSO. Thawing medium and supplement incubation medium (serum-free) were placed in a 37° C. water bath for at least 15 minutes prior to use. Stock solutions were diluted to 100 μM by combining 198 μL acetonitrile and 2 μL of 10 mM stock solution.
Vials of cryopreserved hepatocytes were removed from storage, ensured that vials remain at cryogenic temperatures. The vials were thawed in a 37° C. water bath with gently shaking. Vials were kept in a water bath until all ice crystals had dissolved and were no longer visible. Vials were sprayed with 70% ethanol before being transferred to a biosafety cabinet. And then the contents were poured into the 50 mL thawing medium conical tube. Vials were centrifuged at 100 g for 10 minutes at room temperature. Thawing medium was aspirated and hepatocytes were resuspended with serum-free incubation medium to yield ^˜1.5×10^6 cells/mL.
Cell viability and density were counted using a Trypan Blue exclusion, and then cells were diluted with serum-free incubation medium to a working cell density of 1×10^6 viable cells/ml. A portion of the hepatocytes at 1×10^6 viable cells/mL was boiled for 10 min prior to adding to the plate as negative control to eliminate the enzymatic activity so that little or no substrate turnover should be observed. The inactivated hepatocytes were used to prepare negative samples, which were used to exclude the misleading factor that resulted from instability of chemical itself.
Aliquots of 247.5 μL hepatocytes were dispensed into each well of a 96-well non-coated plate. The plate was placed in the incubator on an orbital shaker for approximately 10 minutes. Aliquots of 2.5 μL of the 100 μM test compounds were added into respective wells of the non-coated 96-well plate to start the reaction. This assay was performed in duplicate. The plate was incubated in the incubator on an orbital shaker for the designed time points. 20 μL of contents were transferred and mixed with 6 volumes (120 μL) of cold acetonitrile with internal standard to terminate the reaction at time points of 5, 15, 30, 45, 60, 80 and 100 minutes. Samples were centrifuges for 20 minutes at 4000 g and aliquots of 100 μl of the supernatants were used for LC-MS/MS analysis for measurement of test compounds.
In vitro hepatocyte clearance was estimated based on determination of elimination half-life (T1/2) of compounds disappearance from their initial concentrations. Peak area ratios of each compound (test or control) to IS was calculated. Ln (% Control) versus Incubation Time (min) curve was plotted, and the slope of a linear fitting line was calculated. Drug elimination rate constant k (min-1), T1/2 (min), and in vitro intrinsic clearance CLint (μL/min/E6) was calculated according to the following equations: k=−slope T1/2=0.693/k CLint=k/Chep • Where Chep (cells×μL-1) is the cell concentration in the incubation system. Procedure for Log D Determination

Molecules are shown by their SMILES. ≈ marks a conversion by molar mass, not a printed value. Read-outs that look alike come from different tables or passages of the source.

T2 sequence (Q06187 whole entry): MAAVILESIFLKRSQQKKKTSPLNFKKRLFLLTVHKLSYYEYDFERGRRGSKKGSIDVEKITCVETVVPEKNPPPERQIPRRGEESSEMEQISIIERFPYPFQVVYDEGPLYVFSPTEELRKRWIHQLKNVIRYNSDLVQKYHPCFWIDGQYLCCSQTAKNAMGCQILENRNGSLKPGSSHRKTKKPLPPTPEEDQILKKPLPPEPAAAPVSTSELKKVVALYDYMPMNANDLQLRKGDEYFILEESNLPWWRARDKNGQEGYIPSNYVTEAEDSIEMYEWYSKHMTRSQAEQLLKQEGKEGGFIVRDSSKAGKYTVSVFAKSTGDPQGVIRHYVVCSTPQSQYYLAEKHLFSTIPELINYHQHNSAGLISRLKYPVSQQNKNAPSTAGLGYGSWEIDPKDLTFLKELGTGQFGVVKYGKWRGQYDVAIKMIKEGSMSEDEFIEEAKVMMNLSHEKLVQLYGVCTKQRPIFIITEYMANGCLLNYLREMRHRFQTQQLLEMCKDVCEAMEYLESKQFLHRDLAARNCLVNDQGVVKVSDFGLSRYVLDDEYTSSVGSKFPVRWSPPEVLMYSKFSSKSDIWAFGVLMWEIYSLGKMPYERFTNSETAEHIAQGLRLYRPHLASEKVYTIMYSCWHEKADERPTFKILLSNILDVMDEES
T3 sequence (Q06187 whole entry): as above
T1 sequence (Q06187 whole entry C481S): as the sequence (Q06187 whole entry) above, with C481S counted along it

Regarding `Nc1nccn2c(C3CCC(CO)OC3)nc(-c3ccc(Oc4ccccc4)cc3F)c12` (single isomer, unassigned) [Compound 2, Trans-(5-(8-amino-1-(2-fluoro-4-phenoxyphenyl)imidazo[1,5-a]pyrazin-3-yl)tetrahydro-2H-pyran-2-yl)methanol], the log distribution coefficient (logD) at 2 h in series [1] was 3.01. In addition, the IC50 at Recombinant BTK(C481S) stood at 0.66 nM; in series [2], 0.6 nM; in series [3] it was 29.1 nM. Besides, the “Maximal Inhibition Level” value in series [3] came to 98.4%. Besides, the solubility in the series “DMSO solubility” is 15.1 µM (≈ 6.56 µg/mL). The “Human Hep Clint” value in series [4] is listed as 4.6 μL/min/10∧6 cells.
As for `Nc1nccn2c(C3CCC(CO)OC3)nc(-c3ccc(Oc4ccccc4)cc3F)c12` (single isomer, unassigned) [Compound 3, Trans-(5-(8-amino-1-(2-fluoro-4-phenoxyphenyl)imidazo[1,5-a]pyrazin-3-yl)tetrahydro-2H-pyran-2-yl)methanol], the logD in series [1] is on record as 2.88. Further, the figures for the IC50 (at Recombinant BTK(C481S); in series [2]; in series [3]) were 6.59 nM, 6.29 nM and 78.4 nM, respectively. Further, the “Maximal Inhibition Level” value in series [3] is recorded as 96.2%. Besides, the solubility in “DMSO solubility” was 34.1 µM (≈ 14.8 µg/mL). Besides, the “Human Hep Clint” value in series [4] was 12.9 μL/min/10∧6 cells.
In turn, `Nc1nccn2c(C3CCC(CO)OC3)nc(-c3ccc(Oc4ccccc4)c(F)c3F)c12` (single isomer, unassigned) [Compound 4, (5-(8-amino-1-(2,3-difluoro-4-phenoxyphenyl)imidazo[1,5-a]pyrazin-3-yl)tetrahydro-2H-pyran-2-yl)methanol] gave a pH-dependent lipophilicity (logD) at 2 h in series [1] of 3.1. Besides, the IC50 at Recombinant BTK(C481S) is 0.61 nM; in series [2], 0.49 nM; in series [3], 30.7 nM. The “Maximal Inhibition Level” value in series [3] is 97.4%. Also, the solubility in the series “DMSO solubility” (kinetic from dmso stock) worked out at 63.1 µM (≈ 28.6 µg/mL). Besides, the “Human Hep Clint” value in series [4] turned out to be 5.6 μL/min/10∧6 cells.
As to `Nc1nccn2c(C3CCC(CO)OC3)nc(-c3ccc(Oc4ccccc4)c(F)c3F)c12` (single isomer, unassigned) [Compound 5, (5-(8-amino-1-(2,3-difluoro-4-phenoxyphenyl)imidazo[1,5-a]pyrazin-3-yl)tetrahydro-2H-pyran-2-yl)methanol], the logD in series [1] was 2.89. The IC50 was determined as 5.42 nM at Recombinant BTK(C481S), 4.92 nM in series [2] and 48.7 nM in series [3]. Also, the “Maximal Inhibition Level” value in series [3] is reported as 95.8%. In the series “DMSO solubility”, this molecule had a solubility of 61.9 µM (≈ 28 µg/mL). In addition, in series [4], the “Human Hep Clint” value came out at 9.0 μL/min/10∧6 cells.
Turning to `Nc1nccn2c(C3CCC(CO)OC3)nc(-c3ccc(Oc4cccc(F)c4F)cc3)c12` (single isomer, unassigned) [Compound 6, (5-(8-amino-1-(4-(2,3-difluorophenoxy)phenyl)imidazo[1,5-a]pyrazin-3-yl)tetrahydro-2H-pyran-2-yl)methanol], in series [1], the log distribution coefficient (logD) at 2 h was determined as 3.28. For the same molecule, the concentration for half-maximal inhibition (IC50) amounted to 0.42 nM at Recombinant BTK(C481S), 0.62 nM in series [2] and 26.2 nM in series [3]. Further, the “Maximal Inhibition Level” value in series [3] is reported as 98.8%. In the series “DMSO solubility” (kinetic from dmso stock), this molecule showed a solubility of 43.9 µM (≈ 19.9 µg/mL). In addition, the “Human Hep Clint” value in series [4] turned out to be 2.1 μL/min/10∧6 cells.
The molecule `Nc1nccn2c(C3CCC(CO)OC3)nc(-c3ccc(Oc4cccc(F)c4F)cc3)c12` (single isomer, unassigned) [Compound 7, (5-(8-amino-1-(4-(2,3-difluorophenoxy)phenyl)imidazo[1,5-a]pyrazin-3-yl)tetrahydro-2H-pyran-2-yl)methanol] displayed a logD in series [1] of 3.19. Further, the 50% inhibitory concentration (IC50) at Recombinant BTK(C481S) stood at 1.53 nM; in series [2], 1.59 nM; in series [3], 138 nM. Also, in series [3], the “Maximal Inhibition Level” value was determined as 97.9%. This molecule returned a solubility in “DMSO solubility” of 45.8 µM (≈ 20.7 µg/mL). In series [4], the “Human Hep Clint” value stood at 3.3 μL/min/10∧6 cells.
As for `Nc1ncnn2c(C3CCC(CO)OC3)nc(-c3ccc(Oc4ccccc4)cc3F)c12` (single isomer, unassigned) [Compound 8, (5-(4-amino-5-(2-fluoro-4-phenoxyphenyl)imidazo[5,1-f][1,2,4]triazin-7-yl)tetrahydro-2H-pyran-2-yl)methanol], the logD at 2 h in series [1] is 3.1. The IC50 is 2.8 nM at Recombinant BTK(C481S), 3.45 nM in series [2] and 42.1 nM in series [3]. The “Maximal Inhibition Level” value in series [3] was found to be 100.9%. Moreover, the solubility in “DMSO solubility” is reported as 21.0 µM (≈ 9.14 µg/mL). Moreover, the “Human Hep Clint” value in series [4] stood at 6.1 μL/min/10∧6 cells.
`Nc1ncnn2c(C3CCC(CO)OC3)nc(-c3ccc(Oc4ccccc4)cc3F)c12` (single isomer, unassigned) [Compound 9, (5-(4-amino-5-(2-fluoro-4-phenoxyphenyl)imidazo[1,5-a][1,2,4]triazin-7-yl)tetrahydro-2H-pyran-2-yl)methanol] returned a pH-dependent lipophilicity (logD) in series [1] of 3.00. Besides, the IC50 on Recombinant BTK(C481S) turned out to be 6.42 nM; in series [2] it was 8.64 nM; in series [3], 124 nM. For the same molecule, in series [3], the “Maximal Inhibition Level” value amounted to 107.7%. The solubility in “DMSO solubility” is 20.3 µM (≈ 8.84 µg/mL). The “Human Hep Clint” value in series [4] was found to be 5.9 μL/min/10∧6 cells.
`Nc1ncnn2c(C3CCC(CO)OC3)nc(-c3ccc(Oc4ccccc4)cc3F)c12` (single isomer, unassigned) [Compound 10, Trans-(5-(4-amino-5-(2-fluoro-4-phenoxyphenyl)imidazo[5,1-f][1,2,4]triazin-7-yl)tetrahydro-2H-pyran-2-yl)methanol] showed a log distribution coefficient (logD) in series [1] of 3.07. Also, the half-inhibitory concentration (IC50) was 0.95 nM at Recombinant BTK(C481S), 0.9 nM in series [2] and 29 nM in series [3]. For the same molecule, the “Maximal Inhibition Level” value in series [3] came out at 98.5%. The solubility in the series “DMSO solubility” is 20.5 µM (≈ 8.93 µg/mL). Besides, the “Human Hep Clint” value in series [4] is recorded as 1.7 μL/min/10∧6 cells.
